Experimental data reported in US9512140B2, “(Thieno[2,3-b][1,5]benzoxazepin-4-yl)piperazin-1-yl compounds as dual activity H1 inverse agonists/5-HT2A antagonists” (priority 2011, dated 2016).

Test system: Rats
Test: Sleep and behavioral monitoring in rats (EEG, EMG, motion)
Format: in vivo
Conditions: for Rebound Insomnia, Adj. Mean: NREM+REM sleep in 7th-9th hours post-treatment; for Rebound Insomnia, Adj. Mean / REM inhibition, Adj. Mean / Cumulative Total sleep, Adj. Mean / Locomotor Activity Intensity, Adj. Mean: difference from vehicle; for REM inhibition, Adj. Mean: cumulative REM sleep, first 12 hr. post-treatment; for Average Sleep Bout, Adj. Mean / Longest Sleep Bout, Adj. Mean / Cumulative Total sleep, Adj. Mean / Cumulative NREM sleep, Adj. Mean / Locomotor Activity Intensity, Adj. Mean: first 6 hr. post-treatment; for Cumulative Total sleep, Adj. Mean: NREM+REM; for Cumulative NREM sleep, Adj. Mean: adjusted difference from vehicle controls
Description: The compound of the present invention is tested in rats for its ability to increase the amount of sleep or decrease sleep interruption or both without undesired effects such as inhibition of REM sleep, waking motor impairment, and/or rebound insomnia. Test animals are continuously monitored by electro-encephalograms (EEG), electromyograms (EMG), and motion to measure cumulative nonREM sleep, cumulative total sleep, average sleep bout duration, longest sleep bout duration, rebound insomnia. REM sleep inhibition and locomotor activity intensity during wakefulness. Methods for such studies are known in the art (see for example methods described in Edgar D M, Seidel W F. Modafinil induces wakefulness without intensifying motor activity or subsequent rebound hypersomnolence in the rat. J Pharmacology & Experimental Therapeutics 1997; 283: 757-769; van Gelder R N, Edgar D M, Dement W C. Real-time automated sleep scoring: validation of a microcomputer-based system for mice. Sleep 1991, 14: 48-55; and Gross B A, Walsh C M, Turakhia A A, Booth V, Mashour G A, Poe G R. Open-source logic-based automated sleep scoring software using electrophysiological recordings in rats. J Neurosci Methods. 2009; 184(1):10-8.) Studies are conducted as follows:
Adult, male Wistar rats (approximately 270-300 g at time of surgery) are surgically fitted for chronic recording of EEG, EMG, and motion as follows: Rats are surgically prepared with a cranial implant consisting of four stainless steel screws for EEG recording (two frontal [3.9 mm anterior from bregma, and ±2.0 mm mediolaterally] and two occipital [6.4 mm posterior from bregma, ±5.5 mm mediolaterally]), and with two Teflon-coated stainless steel wires for EMG recording (positioned under the nuchal trapezoid muscles). All leads are soldered to a miniature connector (Microtech, Boothwyn, Pa.) prior to surgery. The implant assembly is affixed to the skull by the combination of the stainless steel EEG recording screws, cyanoacrylate applied between the implant connector and skull, and dental acrylic. Locomotor activity is monitored via a miniature transmitter (Minimitter PDT4000G, Philips Respironics, Bend, Oreg.) surgically placed into the abdomen. At least 3 weeks are allowed for recovery.
Each rat is housed individually within a microisolator cage modified with an inserted polycarbonate filter-top riser to allow more vertical headroom. A flexible cable that minimally restricts movement is connected at one end to a commutator afixed to the cage top and at the other end to the animal's cranial implant. Each cage is located within separate, ventilated compartments of a stainless steel sleep-wake recording chamber. Food and water are available ad libitum and the ambient temperature is maintained at about 23±1° C. A 24-hr light-dark cycle (LD 12:12) using fluorescent light is maintained throughout the study. Relative humidity averages approximately 50%. Animals are undisturbed for at least 30 hrs before and after each treatment.
The vehicle (placebo, methylcellulose 15 centipoise 0.25% in water) or one of the test compound dose levels is administered orally at 1 mL/kg pseudo-randomly such that no rat receives the same treatment twice, and no rat receives more than two of the 8 treatments in any one study. Each rat is removed from its cage for about a minute to be weighed and treated. At least 6 days “washout” period precede and follow each treatment. […]

Question: With Cc1ccc2c(c1)Oc1sc(C)cc1C(N1CCN(CC(C)(C)C(=O)O)CC1)=N2 [Example 3, 3-[4-(2,8-Dimethylthieno[2,3-b][1,5]benzoxazepin-4-yl)piperazin-1-yl]-2,2-dimethyl-propanoic acid; 4-methylbenzenesulfonic acid] as the compound, how does the “Rebound Insomnia, Adj. Mean” value (0.025 mg/kg PO) read?
Answer: Its value is 0.3 min.

Question: What about the “REM inhibition, Adj. Mean” value (0.025 mg/kg PO) of the same compound?
Answer: Its value is -2.7 min.

Question: And the “Average Sleep Bout, Adj. Mean” value (0.025 mg/kg PO)?
Answer: Its value is 1.0 n-fold increase over vehicle controls.

Question: And the “Longest Sleep Bout, Adj. Mean” value (0.025 mg/kg PO)?
Answer: The value was 1.0 n-fold increase over vehicle controls.

Question: What about the “Cumulative Total sleep, Adj. Mean” value (0.025 mg/kg PO) of the same compound?
Answer: The value was -2.3 min.

Question: And the “Cumulative NREM sleep, Adj. Mean” value (0.025 mg/kg PO)?
Answer: The value was 1.3 min.

Question: What about the “Locomotor Activity Intensity, Adj. Mean” value (0.025 mg/kg PO) of the same compound?
Answer: The value was −0.1 LMA counts per minute of EEG-defined wakefulness.

Question: And the “Rebound Insomnia, Adj. Mean” value (0.25 mg/kg PO)?
Answer: The value was 1.0 min.

Question: What about the “REM inhibition, Adj. Mean” value (0.25 mg/kg PO) of the same compound?
Answer: Its value is -1.5 min.

Question: What about the “Average Sleep Bout, Adj. Mean” value (0.25 mg/kg PO) of the same compound?
Answer: Its value is 1.6 n-fold increase over vehicle controls.

Question: And the “Longest Sleep Bout, Adj. Mean” value (0.25 mg/kg PO)?
Answer: The value was 1.6 n-fold increase over vehicle controls.

Question: What about the “Cumulative Total sleep, Adj. Mean” value (0.25 mg/kg PO) of the same compound?
Answer: Its value is 33.5 min.

Question: What about the “Cumulative NREM sleep, Adj. Mean” value (0.25 mg/kg PO) of the same compound?
Answer: The value was 34.3 min.

Question: What about the “Locomotor Activity Intensity, Adj. Mean” value (0.25 mg/kg PO) of the same compound?
Answer: The value was −1.6 LMA counts per minute of EEG-defined wakefulness.

Question: What about the “Rebound Insomnia, Adj. Mean” value (0.5 mg/kg PO) of the same compound?
Answer: The value was -0.3 min.

Question: And the “REM inhibition, Adj. Mean” value (0.5 mg/kg PO)?
Answer: The value was 0.7 min.

Question: And the “Average Sleep Bout, Adj. Mean” value (0.5 mg/kg PO)?
Answer: Its value is 1.6 n-fold increase over vehicle controls.

Question: What about the “Longest Sleep Bout, Adj. Mean” value (0.5 mg/kg PO) of the same compound?
Answer: The value was 2.1 n-fold increase over vehicle controls.

Question: What about the “Cumulative Total sleep, Adj. Mean” value (0.5 mg/kg PO) of the same compound?
Answer: Its value is 21.7 min.

Question: And the “Cumulative NREM sleep, Adj. Mean” value (0.5 mg/kg PO)?
Answer: The value was 21.7 min.

Question: And the “Locomotor Activity Intensity, Adj. Mean” value (0.5 mg/kg PO)?
Answer: The value was 0.0 LMA counts per minute of EEG-defined wakefulness.

Question: And the “Rebound Insomnia, Adj. Mean” value (1 mg/kg PO)?
Answer: Its value is -3.8 min.

Question: What about the “REM inhibition, Adj. Mean” value (1 mg/kg PO) of the same compound?
Answer: The value was 0.1 min.

Question: What about the “Average Sleep Bout, Adj. Mean” value (1 mg/kg PO) of the same compound?
Answer: The value was 1.7 n-fold increase over vehicle controls.

Question: And the “Longest Sleep Bout, Adj. Mean” value (1 mg/kg PO)?
Answer: The value was 2.2 n-fold increase over vehicle controls.

Question: And the “Cumulative Total sleep, Adj. Mean” value (1 mg/kg PO)?
Answer: The value was 30.8 min.

Question: What about the “Cumulative NREM sleep, Adj. Mean” value (1 mg/kg PO) of the same compound?
Answer: The value was 31.9 min.

Question: What about the “Locomotor Activity Intensity, Adj. Mean” value (1 mg/kg PO) of the same compound?
Answer: Its value is −2.5 LMA counts per minute of EEG-defined wakefulness.

Question: And the “Rebound Insomnia, Adj. Mean” value (3 mg/kg PO)?
Answer: Its value is -1.3 min.

Question: And the “REM inhibition, Adj. Mean” value (3 mg/kg PO)?
Answer: Its value is -4.2 min.

Question: And the “Average Sleep Bout, Adj. Mean” value (3 mg/kg PO)?
Answer: The value was 1.5 n-fold increase over vehicle controls.

Question: What about the “Longest Sleep Bout, Adj. Mean” value (3 mg/kg PO) of the same compound?
Answer: Its value is 1.9 n-fold increase over vehicle controls.

Question: What about the “Cumulative Total sleep, Adj. Mean” value (3 mg/kg PO) of the same compound?
Answer: Its value is 26.9 min.

Question: And the “Cumulative NREM sleep, Adj. Mean” value (3 mg/kg PO)?
Answer: Its value is 29.2 min.

Question: And the “Locomotor Activity Intensity, Adj. Mean” value (3 mg/kg PO)?
Answer: The value was −2.6 LMA counts per minute of EEG-defined wakefulness.

Question: What about the “Rebound Insomnia, Adj. Mean” value (10 mg/kg PO) of the same compound?
Answer: Its value is 0.4 min.

Question: And the “REM inhibition, Adj. Mean” value (10 mg/kg PO)?
Answer: Its value is -12.1 min.

Question: And the “Average Sleep Bout, Adj. Mean” value (10 mg/kg PO)?
Answer: The value was 1.7 n-fold increase over vehicle controls.

Question: And the “Longest Sleep Bout, Adj. Mean” value (10 mg/kg PO)?
Answer: Its value is 1.9 n-fold increase over vehicle controls.

Question: What about the “Cumulative Total sleep, Adj. Mean” value (10 mg/kg PO) of the same compound?
Answer: The value was 32.8 min.

Question: What about the “Cumulative NREM sleep, Adj. Mean” value (10 mg/kg PO) of the same compound?
Answer: Its value is 36.7 min.

Question: What about the “Locomotor Activity Intensity, Adj. Mean” value (10 mg/kg PO) of the same compound?
Answer: Its value is −3.7 LMA counts per minute of EEG-defined wakefulness.

Question: What about the “change in awake time following treatment, dose response curve (FIG. 2)” value (rat) of the same compound?
Answer: The value was “does not result in rebound insomnia”.

Question: What about the “change in cumulative REM sleep time, dose response curve (FIG. 1)” value (rat) of the same compound?
Answer: The value was “does not inhibit REM sleep”.

Question: And the “change in distances moved during periods of wakefulness, dose response curve (FIG. 3)” value (rat)?
Answer: The value was “does not inhibit or stimulate normal activity”.
